Data from patent publication US20220146500A1, “COMPOSITIONS AND METHODS FOR ENHANCING MUCOSAL IMMUNITY” (Yale University, priority 2019, published 2022).

Legend:
C. muridarum = details: upper reproductive tract epithelial cell line; cited from earlier work
polyclonal T cell lines = assay: Culture of Chlamydia-specific polyclonal T cell lines with TGFβ1, IL-13 in supernatant after anti-CD3 activation; type: cell-based, mouse
Procedure: FIG. 9 is a histogram depicting polyclonal T cell lines with fading IL-13 production cultured as per usual protocol and, in parallel, the usual protocol plus 10 ng/ml TGFβ1. At the end of one week the T cell lines were activated with immobilized anti-CD3 and IL-13 levels measured in culture supernatant. […] It was also noted that expansions in TGFβ1 conditions yielded˜50% more cells per well.
Conventional multifunction Chlamydia-specific Th1 clone 4uvmo-3 was previously described (Jayarapu et al., 2009, Infect Immun 77:4469-4479). For the new B-cell APC-derived T cells C57BL/6 mice were treated with 2.5 mg of medroxyprogesterone (Pfizer) delivered subcutaneously, then infected 7 days later with 5×10^4 IFU C. muridarum. Mice that cleared infection, >6 weeks post-infection, were used as the source of immune B and T cells. Initial Chlamydia-specific immune-B-cell-derived polyclonal T cell populations and clones were derived as follows. Splenocytes were harvested from immune mice. Immune B cells were purified from a portion of those splenocytes by “untouched” magnetic bead separation (Miltenyi Biotech). Immune B cells were pulsed with UV-MoPn (3.5×10^6 IFU equivalents per 7.5×10^5 B cells suspended at 7.5×10^6/ml; ˜5 IFU/cell) or soluble antigen (7.5 ul per 7.5×10^5 B cells suspended at 7.5×10^6/ml) for 1 h at 37° C. Antigen-pulsed immune B cells were transferred to 7.5 cc of “RPMI complete media”, pelleted, media containing antigen removed, then washed two more times with 7.5 cc of media (˜400,000-fold) to eliminate all non-cell bound or internalized Chlamydia antigen; the purpose of extended washing was to ensure that antigen presentation was limited to immune B cells. Primary stimulation wells were setup with 2.5×10^6 immune splenocytes plus 7.5×10^5 antigen-pulsed immune B cells in 0.75 ml “RPMI complete media” supplemented with recombinant cytokines and conditioned media as previously described (Johnson et al., 2014, Immunology 142:248-257); later T cell derivations during the course of the project included addition of 5 ng/ml recombinant murine TGFβ1 to the media. Limiting dilution cloning was done in media supplemented with recombinant cytokines/conditioned media with 10-20 ng/ml TGFβ1. Re-stimulation/maintenance of T cell clones was done weekly in 48-well plates by adding 100-200 k T cell clone cells to 1.5×10^6 irradiated naive splenocytes and 7.5×10^5 irradiated relevant-antigen-pulsed/washed immune B cells as feeders in media supplemented with recombinant cytokines/conditioned media including 2.5-10 ng/ml TGFβ1. Recombinant mouse cytokines were purchased from the same vendor (R&D Systems; Minneapolis, Minn.) except for TGFP1 (Ebioscience, San Diego, Calif.). […]

| Substance | effect on C. muridarum replication (C. muridarum) | IL-13 production after one week of culture (polyclonal T cell lines; 10 ng/ml TGFβ1, lines with fading IL-13 production, anti-CD3 activation) | more cells per well in expansions (polyclonal T cell lines; TGFβ1 conditions versus usual protocol) [%] | durable IL-13 production with increasing passage number (polyclonal T cell lines; immune-B-cell-APC-derived polyclonal T cell lines) | IL-13 production (polyclonal T cell lines; immune-splenocyte-APC-derived T cell lines) |
| --- | --- | --- | --- | --- | --- |
| IL-13: Th2 cytokine | modestly enhances C. muridarum replication |  |  |  |  |
| TGFβ1: recombinant murine TGFβ1 |  | With the exception of B2 all the lines made more IL-13 | ~50 | required addition of TGFβ1 to the media | did not result in IL-13 production |
